# Literature values, collected in US20100222262A1, “SUBSTITUTED 1, 3-CYCLOPENTADIONE ATTENUATED ENDOTHELIAL INFLAMMATION AND ENDOTHELIAL-MONOCYTE INTERACTIONS” (METAPROTEOMICS, LLC, priority 2008, published 2010).
# Tested on: 85 Kinases
# Conditions: not given
Molecule,G10 (Gini coefficient),hit rate (>50% Inhibition)
CC[C@H](CO)Nc1nc(NCc2ccccc2)c2ncn(C(C)C)c2n1 [Roscovitine],0.744,10
C[S+]([O-])c1ccc(-c2nc(-c3ccncc3)c(-c3ccc(F)cc3)[nH]2)cc1 (stereo not drawn) [SB203580],0.621,17

# Same assay, conditions: 85 kinases; Concn 0.001 uM
Molecule,G10 (Gini coefficient),hit rate (>50% Inhibition)
COc1cc2ncnc(Nc3cccc(Br)c3)c2cc1OC [PD153035],0.616,0

# Same assay, conditions: 85 kinases; Concn 1 uM
Molecule,G10 (Gini coefficient),hit rate (>50% Inhibition)
O=C(O)c1cc(N(Cc2ccccc2O)Cc2ccccc2O)ccc1O [Lavendustin B],0.515,0
CN(C)S(=O)(=O)c1ccc2c(c1)/C(=C/c1cc3c([nH]1)CCCC3)C(=O)N2 [SU6656],0.607,19
CCCCCCOC(=O)[C@]1(O)C[C@@H]2O[C@@]1(C)n1c3ccccc3c3c4c(c5c6ccccc6n2c5c31)C(=O)NC4 [KT5720],0.423,33
O=C1Cc2c([nH]c3ccc([N+](=O)[O-])cc23)-c2ccccc2N1 [Alsterpaullone],0.633,22
CN[C@@H]1C[C@H]2O[C@@](C)([C@@H]1OC)n1c3ccccc3c3c4c(c5c6ccccc6n2c5c31)C(=O)NC4 [Staurosporine],0.093,
Cn1cc(C2=C(c3cn(CCCSC(=N)N)c4ccccc34)C(=O)NC2=O)c2ccccc21 [Ro31-8220],0.432,39
CC(C)(C)n1nc(-c2ccc(Cl)cc2)c2c(N)ncnc21 [PP2],0.722,14
O=C(O)c1cc(N(Cc2ccccc2O)Cc2cc(O)ccc2O)ccc1O [Lavendustin A],0.726,0
Nc1ncnc2c1cnn2-c1ccccc1 [PP3],0.634,0

# Same assay, conditions: 85 kinases; Concn 10 uM
Molecule,G10 (Gini coefficient),hit rate (>50% Inhibition)
Cc1ccc(NC(=O)c2cccc(N(C)C)c2)cc1NC(=O)c1ccc(O)cc1 [ZM336372],0.635,11
O=S(=O)(NCCNC/C=C/c1ccc(Br)cc1)c1cccc2cnccc12 [H89],0.442,34
COc1cc2ncc(-c3ccccc3)nc2cc1OC [AG1296],0.498,4
O=C(NOCC1CC1)c1ccc(F)c(F)c1Nc1ccc(I)cc1Cl [PD184352],0.802,1
CC(=O)c1c(O)c(C)c(O)c(Cc2c(O)c3c(c(C(=O)/C=C/c4ccccc4)c2O)OC(C)(C)C=C3)c1O [Rottlerin],0.595,3
CC(C)(C)c1cc(C=C(C#N)C#N)cc(Br)c1O [AG1024],0.568,11
CCOc1cc(/C=C(\C#N)C(N)=O)cc(CSc2ccccc2)c1O [ST638],0.568,14
O=C1NCc2c1c1c3ccccc3[nH]c1c1[nH]c3ccccc3c21 [K252c],0.236,58
O=c1cc(O)cc(/C=C/c2ccc(O)c(O)c2)o1 [Hispidin],0.790,2
COc1cc2ncnc(Nc3cccc(Cl)c3)c2cc1OC [AG1478],0.500,25
O=C1c2ccccc2-c2n[nH]c3cccc1c23 [JNK inh II],0.445,35
N#CC(C#N)=C(N)/C(C#N)=C/c1cc(O)c(O)c(O)c1 [AG183],0.460,14
O=S(=O)(c1cccc2cnccc12)N1CCCNCC1 [HA1077],0.650,19
C[C@@H](N)[C@H]1CC[C@H](C(=O)Nc2ccncc2)CC1 [Y27632],0.628,13
N#C/C(=C\c1ccc(O)c(O)c1)C(=O)c1ccc(O)c(O)c1 [AG538],0.417,17
O=c1c(-c2ccc(O)cc2)coc2cc(O)cc(O)c12 [Genistein],0.582,0
Calphostin C,0.606,2
Oc1ccc(-c2nc(-c3ccncc3)c(-c3ccc(F)cc3)[nH]2)cc1 [SB202190],0.553,29
N#CC(C#N)=Cc1ccc(O)c(O)c1 [AG18],0.680,1
CO[C@H]1[C@@H](OC)C[C@H](C)[C@@H](OC)C2=CC(=O)C=C(NC(=O)/C(C)=C/C=C\[C@H](OC)[C@@H](OC(N)=O)/C(C)=C/[C@@H]1C)C2=O [Herbimycin A],0.534,0
O=C(O[C@@H]1Cc2c(O)cc(O)cc2O[C@@H]1c1cc(O)c(O)c(O)c1)c1cc(O)c(O)c(O)c1 [EGCG],0.495,21

# Same assay, conditions: 85 kinases; Concn 50 uM
Molecule,G10 (Gini coefficient),hit rate (>50% Inhibition)
COc1cc(/C=C/C(=O)CC(=O)/C=C/c2ccc(O)c(OC)c2)ccc1O [Curcumin],0.417,38
Cn1cnc2c(NCc3ccccc3)nc(NCCO)nc21 [Olomoucin],0.556,13
